We go through eight compounds from patent publication US5300524A, “Spirocyclic PAF antagonists” (British Bio-Technology Limited, priority 1991, dated 1994).

The subject of one experiment is PAF-induced hypotension in rats. Put plainly: Reversal of PAF-induced hypotension in the rat. In kind it is in vivo. The conditions noted are these: iv, anaesthetised male Sprague-Dawley rats, PAF 100 ng.kg^-1 min^-1 i.v. infusion, compound i.v. bolus, read-out: ED50, dose to cause a 50% reversal of the hypotensive PAF response. The procedure: Compounds of general formula I inhibit PAF-induced functions in both the cellular and tissue levels by changing the PAF binding to its specific receptor site. The ability of compounds of general formula I to inhibit the binding of PAF to its specific receptor binding site on human platelet plasma membranes was measured according to Pharmacological Example 1. The ability of compounds of general formula I to reverse the hypotension caused by an infusion of PAF in rats was measured according to Pharmacology Example 2. […] Male Sprague-Dawley rats (300-350 gms) were anaesthetised with a mixture of sodium pentobarbitone, 22.5 mg.kg^-1 and thiopental 62.5 mg.kg^-1. Through a midline incision in the neck, the trachea was cannulated and the animals breathed spontaneously. A carotid artery was cannulated for the measurement of blood pressure and this signal was used to trigger a rate meter to measure heart rate. Both jugular veins were cannulated: one for the infusion of PAF and the other for the bolus administration of test compounds.
As a reminder, the ED50 is the midpoint of the dose-response relation. Turning to `COc1ccc(C2CCC3(O2)C(=O)C(=Cc2cccnc2)CC3c2ccc(OC)c(OC)c2)cc1OC` (stereo not drawn) [Example 2, 1-Oxa-6-oxo-7-(3-pyridyl)methylene-2,9-di(3,4-dimethoxyphenyl)spiro[4,4]nonane], the 50% effective dose (ED50) was 0.8 mg/kg.

The target in another experiment is T1, PAF receptor (^3 H-PAF binding to human platelet plasma membrane) (Homo sapiens, UniProt P25105).
T1 construct: from tissue; host or cells: human platelets (concentrates from a hospital blood bank), lysed by freeze-thaw, membrane fraction
T1 sequence (P25105 whole entry): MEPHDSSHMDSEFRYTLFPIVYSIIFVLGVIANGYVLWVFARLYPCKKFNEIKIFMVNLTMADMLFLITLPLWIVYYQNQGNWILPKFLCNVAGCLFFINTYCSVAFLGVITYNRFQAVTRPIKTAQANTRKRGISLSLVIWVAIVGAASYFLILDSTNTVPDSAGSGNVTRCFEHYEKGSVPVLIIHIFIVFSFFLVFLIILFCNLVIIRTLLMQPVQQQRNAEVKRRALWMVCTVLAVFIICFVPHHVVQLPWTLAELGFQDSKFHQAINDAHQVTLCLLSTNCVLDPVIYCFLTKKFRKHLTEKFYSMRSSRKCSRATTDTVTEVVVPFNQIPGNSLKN
Put plainly: Inhibition of ^3H-PAF binding to human platelet plasma membrane (isotopic labelling and filtration). The conditions noted are these: human platelet membranes, 0.5 nM ^3H-PAF, 1 hour, 0° C.
As a reminder, the IC50 is the concentration that gives 50% inhibition. Low values mean inhibition by little substance, high ones a need for much substance. In turn, `COc1ccc(C2CCC3(O2)C(=O)CCC3c2ccc(OC)c(OC)c2)cc1OC` (single isomer, unassigned) [Example 1A, 1-oxa-6-oxo-2,9-(3,4-dimethoxyphenyl)spiro[4,4]nonane] had an IC50 of 12 µM.
Regarding `COc1ccc(C2CCC3(O2)C(=O)C(=Cc2cccnc2)CC3c2ccc(OC)c(OC)c2)cc1OC` (stereo not drawn) [Example 2, 1-Oxa-6-oxo-7-(3-pyridyl)methylene-2,9-di(3,4-dimethoxyphenyl)spiro[4,4]nonane], the concentration for half-maximal inhibition (IC50) turned out to be 3 µM.
Same read-out and setting: as for `COc1ccc(C2CCC3(O2)C(=O)C(=Cc2cccc(Cl)c2)CC3c2ccc(OC)c(OC)c2)cc1OC` (stereo not drawn) [Example 5, 1-Oxa-6-oxo-7-(3-chlorophenyl)methylene-2,9-di(3,4-dimethoxyphenyl)spiro[4,4]nonane], the figure is 5 µM; as for `COc1ccc(C2CCC3(O2)C(=O)C(=CCCc2cccnc2)CC3c2ccc(OC)c(OC)c2)cc1OC` (stereo not drawn) [Example 10, 1-Oxa-6-oxo-7-(3-pyridylethyl)methylene-2,9-di(3,4-dimethoxyphenyl)spiro[4,4]nonane], 1.5 µM.
`COc1ccc(C2CCC3(O2)C(=O)C(=CCCCCc2cccnc2)CC3c2ccc(OC)c(OC)c2)cc1OC` (stereo not drawn) [Example 11, 1-Oxa-6-oxo-7-(3-pyridylbutyl)methylene-2,9-di(3,4-dimethoxyphenyl)spiro[4,4]nonane]: the IC50 worked out at 1 µM.
Compound `COc1ccc(C2CCC3(O2)C(=CC#N)CCC3c2ccc(OC)c(OC)c2)cc1OC` (stereo not drawn) [Example 17, 1-Oxa-6-cyanomethylene-2,9-di(3,4-dimethoxyphenyl)spiro[4,4]nonane] yielded an IC50 of 1.5 µM.
For the compound `COc1ccc(C2CCC3(O2)C(=O)CCC3c2ccc(OC)cc2)cc1` (stereo not drawn) [Example 18, 1-Oxa-6-oxo-2,9-di(4-methoxyphenyl)spiro[4,4]nonane], the IC50 is 5 µM.
Compound `COc1ccc(C2CCC3(O2)C(=O)C(=Cc2cccnc2)CC3c2ccc(OC)cc2)cc1` (stereo not drawn) [Example 19, 1-Oxa-6-oxo-7-(3-pyridyl)methylene-2,9-di(4-methoxyphenyl)spiro[4,4]nonane] came in with a half-inhibitory concentration (IC50) of 9 µM.
